The test relates to Plasmodium berghei. Kind of test: Luciferase/luciferin-expressing antifolate-resistant parasites were used to infect a culture of HepG2 cells that were pre-incubated with compounds. Infected hepatocytes emit light due to the luciferase reaction. Assay results are presented as the percent inhibition of light emission compared to control. […]. It counts as functional. The settings on record: sporozoite; for IC90: read-out: LUCIFERASE INFECTION ASSAY - IC90.

[1] abbreviates: read-out: LUCIFERASE INFECTION ASSAY - IC50.

The term pIC50 denotes the negative decadic logarithm of the IC50, by convention in mol/L. What is called IC90 is the concentration needed for an effect of 90%.

pIC50: −log10 of the molar value.

Take `Cc1ccc(Oc2ccc(OCC(=O)NCCNc3ccc4ccccc4c3)cc2)cc1`: the IC90 was 6.61 µM. Besides, the pIC50 (HEPG2TOX_HILL_SLOPE 2.47, HEPG2TOX_R_SQUARED 0.879, PBLUC_HILL_SLOPE 3.02, PBLUC_R_SQUARED 0.699, read-out: LUCIFERASE INFECTION ASSAY - IC50) is 5.49.
As for `CCn1c(NC(=O)C2=NOC(c3ccccc3)C2)nc2ccccc21` (stereo not given), the IC90 was found to be 3.82 µM. Under setting [1], the pIC50 was 5.47.
For `N#Cc1ccc(Sc2c(Cl)cccc2Cl)c(NC(=O)c2cccc(Cl)c2)c1`, the IC90 is more than 7.61 µM. For the same molecule, the pIC50 (PBLUC_HILL_SLOPE 1.82, PBLUC_R_SQUARED 0.326, read-out: LUCIFERASE INFECTION ASSAY - IC50) was 5.22.
As for `CC(C(=O)Nc1cccc(C#Cc2cccs2)c1)n1cnc2ccccc21` (stereo not given), the IC90 was more than 10 µM. In addition, the pIC50 under setting [1] is less than 5.00.
Take `O=C(/C=N/Nc1ncc(C(F)(F)F)cc1Cl)c1ccccn1`: the IC90 is more than 10 µM. Moreover, the pIC50 (PBLUC_HILL_SLOPE 3.06, PBLUC_R_SQUARED 0.0968, read-out: LUCIFERASE INFECTION ASSAY - IC50) was 5.06.
On to `NC(=O)c1cccc(-c2ccc3ncc(-c4cccc(O)c4)n3n2)c1`, for which the IC90 stood at 7.72 µM. Besides, the pIC50 (HEPG2TOX_HILL_SLOPE 3.39, HEPG2TOX_R_SQUARED 0.986, PBLUC_HILL_SLOPE 6.74, PBLUC_R_SQUARED 0.592, read-out: LUCIFERASE INFECTION ASSAY - IC50) was 5.25.
As to `CC(C)(C)c1ccc(/C=C2\CCc3c2nc2ccccc2c3C(=O)OCC#N)cc1`, the IC90 was more than 10 µM. The pIC50 under setting [1] was less than 5.00.
Taken in the same sequence, the figures for `Cc1cc(-c2cc(C(=O)NCCN3CCOCC3)c3cnn(C(C)C)c3n2)c(C)s1` were more than 10 µM and less than 5.00.
Taken in the same sequence, the figures for `CC(=O)Nc1cccc(C(=O)/C=C/c2cn(-c3ccccc3)nc2-c2ccncc2)c1` were more than 10 µM and less than 5.00.
As for `c1ccc(-c2cc(N3CCCCC3)c3ccccc3n2)nc1`, the IC90 was more than 11.4 µM. Moreover, the pIC50 (PBLUC_HILL_SLOPE 9.83, PBLUC_R_SQUARED 0.0291, read-out: LUCIFERASE INFECTION ASSAY - IC50) is 4.99.
For `O=C(Oc1ccc(/C=N/Nc2nc3ccccc3s2)c(OC(=O)c2ccco2)c1)c1ccco1`, the IC90 was more than 10 µM. Also, where the note is “PBLUC_HILL_SLOPE 13.1, PBLUC_R_SQUARED 0.411, read-out: LUCIFERASE INFECTION ASSAY - IC50”, the pIC50 is 5.04.
As for `Cc1nn(C)c(Cl)c1/C=N/Nc1ccc([N+](=O)[O-])cc1S(=O)(=O)Nc1ccc(Cl)cc1`, the IC90 was more than 10 µM. The pIC50 (HEPG2TOX_HILL_SLOPE 1.82, HEPG2TOX_R_SQUARED 0.852, PBLUC_HILL_SLOPE 13.6, PBLUC_R_SQUARED 0.455, read-out: LUCIFERASE INFECTION ASSAY - IC50) was 5.02.
`Fc1ccc(-c2cc3[nH]c(NCc4ccccc4)nc3cn2)cc1Cl`: the IC90 is 5.42 µM. Moreover, under “HEPG2TOX_HILL_SLOPE 17.8, HEPG2TOX_R_SQUARED 0.722, PBLUC_HILL_SLOPE 354, PBLUC_R_SQUARED 0.159, read-out: LUCIFERASE INFECTION ASSAY - IC50”, the pIC50 is 5.27.
On to `COc1ccc(-c2cnc3sc(NCCc4ccncc4)nn23)cc1OC`, for which the IC90 was determined as 8.35 µM. In addition, the pIC50 (HEPG2TOX_HILL_SLOPE 4.06, HEPG2TOX_R_SQUARED 0.383, PBLUC_HILL_SLOPE 12.9, PBLUC_R_SQUARED 0.15, read-out: LUCIFERASE INFECTION ASSAY - IC50) is 5.15.
For `CCCCN(C(=O)CSc1nnc(-c2ccc(OC)cc2)n1C(C)C)c1c(N)n(CCCC)c(=O)[nH]c1=O`, the IC90 was more than 10 µM. Further, the pIC50 under setting [1] is less than 5.00.
As to `O=C(Nc1cc(C(F)(F)F)ccc1N1CCOCC1)c1ccc(SCc2cscn2)cc1`, the IC90 was more than 10 µM. The pIC50 (PBLUC_HILL_SLOPE 11.6, PBLUC_R_SQUARED 0.493, read-out: LUCIFERASE INFECTION ASSAY - IC50) was 5.05.
Regarding `CCc1nnc(NC(=O)/C=C/c2cc(Cl)c(OC(C)C)c(OC)c2)s1`, the IC90 is more than 10 µM. The pIC50 (HEPG2TOX_HILL_SLOPE 1.31, HEPG2TOX_R_SQUARED 0.955, PBLUC_HILL_SLOPE 2.51, PBLUC_R_SQUARED 0.0872, read-out: LUCIFERASE INFECTION ASSAY - IC50) was 5.17.
For the molecule `Cn1c(N)c(C(=O)COC(=O)C2(c3ccccc3F)CCCC2)c(=O)n(C)c1=O`, the IC90 is more than 10 µM. In addition, under setting [1], the pIC50 is less than 5.00.
For `O=C1C(Cl)=C(Nc2ccc(O)cc2)C(=O)c2ccccc21`, the IC90 worked out at 4.51 µM. The pIC50 (FFLUC_HILL_SLOPE 7.86, FFLUC_R_SQUARED 0.408, HEPG2TOX_HILL_SLOPE 4.2, HEPG2TOX_R_SQUARED 0.984, PBLUC_HILL_SLOPE 12.7, PBLUC_R_SQUARED 0.571, read-out: LUCIFERASE INFECTION ASSAY - IC50) is 5.42.
In the case of `CC(C)(C)c1cc(/C=C2\C=c3ccccc3=C2O)cc(C(C)(C)C)c1O`, the IC90 is more than 9.47 µM. Where the note is “FFLUC_HILL_SLOPE 9.15, FFLUC_R_SQUARED 0.521, read-out: LUCIFERASE INFECTION ASSAY - IC50”, the pIC50 is less than 5.02.
As for `CC(Sc1nc(-c2ccccc2)c(-c2ccccc2)o1)C(=O)N1CCNC1=O` (stereo not given), the IC90 is more than 10 µM. The pIC50 under setting [1] was less than 5.00.
For `C=CCN(C(=O)C1CCN(S(=O)(=O)c2cccs2)CC1)c1nc2c(s1)CCCC2`, in that order: more than 10 µM and less than 5.00.
Turning to `CC(C)(C)c1ccc(OC(=O)Nc2ccc(Cl)c(Cl)c2)c(C(C)(C)C)c1`, the IC90 was more than 8.37 µM. Further, the negative logarithm of the IC50 (pIC50) (FFLUC_HILL_SLOPE 3, FFLUC_R_SQUARED 0.639, PBLUC_HILL_SLOPE 0.845, PBLUC_R_SQUARED 0.14, read-out: LUCIFERASE INFECTION ASSAY - IC50) is less than 5.08.
In the case of `O=C(NNC(=O)c1nn(-c2ccccc2)cc1O)c1ccc(-n2cccn2)cc1`, the IC90 came out at 4.26 µM. Besides, the pIC50 (HEPG2TOX_HILL_SLOPE 1.34, HEPG2TOX_R_SQUARED 0.874, PBLUC_HILL_SLOPE 11.6, PBLUC_R_SQUARED 0.65, read-out: LUCIFERASE INFECTION ASSAY - IC50) was 5.45.
As to `CC1(C(=O)Nc2cnc3ccccc3c2)CCN1Cc1ccccc1Cl` (stereo not given), the IC90 was more than 9.02 µM. Also, the pIC50 (HEPG2TOX_HILL_SLOPE 0.189, HEPG2TOX_R_SQUARED 0.318, read-out: LUCIFERASE INFECTION ASSAY - IC50) was less than 5.04.
As to `COc1c(C)cc(C(O)c2nc(-c3cccc4ccccc34)c[nH]2)cc1C` (stereo not given), the IC90 was more than 9.21 µM. Moreover, the pIC50 (FFLUC_HILL_SLOPE 13.5, FFLUC_R_SQUARED 0.422, HEPG2TOX_HILL_SLOPE 8.48, HEPG2TOX_R_SQUARED 0.286, read-out: LUCIFERASE INFECTION ASSAY - IC50) was less than 5.04.
Turning to `Cc1cc(C)cc(N(C(=O)C23CC4CC(CC(C4)C2)C3)C2C=CS(=O)(=O)C2)c1` (stereo not given), the IC90 was more than 10 µM. Moreover, the pIC50 under setting [1] is less than 5.00.
Consider `CCOC(=O)c1c[nH]c2c(C)cc(Cl)cc2c1=O`, for which the IC90 was more than 12.4 µM. Also, the pIC50 (PBLUC_HILL_SLOPE 15.3, PBLUC_R_SQUARED 0.364, read-out: LUCIFERASE INFECTION ASSAY - IC50) was 4.95.
With `CCN(CC)S(=O)(=O)c1ccc(=O)n(Cc2nc(N)nc(N(C)C)n2)c1`, the 90% effect concentration (IC90) is more than 10 µM. For the same molecule, under setting [1], the pIC50 is less than 5.00.
As for `CSc1sc(-c2ccon2)c(-c2ccccc2)c1C#N`, the IC90 was more than 11.1 µM. For the same molecule, the pIC50 under setting [1] was less than 4.95.
Taken in the same sequence, the figures for `C#CCCCCCCCCC(=O)NO` were more than 10 µM and less than 5.00.
Taken in the same sequence, the figures for `Cc1ccc(Cn2nc(C)c3cc(C(=O)OCC(=O)c4cc(C)n(CC5CCCO5)c4C)sc32)cc1` (stereo not given) were more than 10 µM and less than 5.00.
On to `COc1ccc(/C=C/C(=O)c2cc(Cl)c(OC)cc2OC)cc1O`, for which the IC90 is 1.26 µM. Also, the pIC50 (HEPG2TOX_HILL_SLOPE 1.17, HEPG2TOX_R_SQUARED 0.559, PBLUC_HILL_SLOPE 18.3, PBLUC_R_SQUARED 0.538, read-out: LUCIFERASE INFECTION ASSAY - IC50) is 5.95.
In the case of `CC(C)CC(N)c1csc(NC(=O)Nc2ccccc2C(C)(C)C)n1` (stereo not given), the IC90 turned out to be 3.05 µM. Besides, the pIC50 (PBLUC_HILL_SLOPE 4.98, PBLUC_R_SQUARED 0.541, read-out: LUCIFERASE INFECTION ASSAY - IC50) was 5.71.
For `CCOC(=O)c1nc(N(CCc2ccccc2)C(=O)c2cnc3c(cnn3C(C)C)c2)sc1C`, the IC90 is more than 10 µM. Also, the pIC50 under setting [1] is less than 5.00.
For `O=C(CN1CC=C(c2ccccc2)CC1)NC(c1ccccc1)c1ccccc1`, in that order: more than 10 µM and less than 5.00.
Turning to `Cc1ccc(C2=NN(C(=O)Cn3nc(C)c(S(=O)(=O)N(C)C)c3C)C(c3ccco3)C2)cc1` (stereo not given), the IC90 was more than 10 µM. Where the note is “FFLUC_HILL_SLOPE 21, FFLUC_R_SQUARED 0.497, read-out: LUCIFERASE INFECTION ASSAY - IC50”, the pIC50 was less than 5.00.
As for `CCc1nn2c(NCc3cccnc3)cc(C)nc2c1-c1ccccc1`, the IC90 is more than 9.61 µM. Moreover, the pIC50 (PBLUC_HILL_SLOPE 2.62, PBLUC_R_SQUARED 0.301, read-out: LUCIFERASE INFECTION ASSAY - IC50) is 5.14.
Take `Cc1c(C(=O)OCC(=O)c2cc(C)n(-c3cccc(F)c3)c2C)sc2nc3n(c(=O)c12)CCC3`: the IC90 was more than 10 µM. Moreover, under setting [1], the pIC50 is less than 5.00.
Take `Clc1ccc2c(NCc3ccc(CN4CCOCC4)cc3)ccnc2c1`: the IC90 came to 4.14 µM. Besides, the pIC50 (HEPG2TOX_HILL_SLOPE 2.51, 1.28, HEPG2TOX_R_SQUARED 0.778, 0.972, PBLUC_HILL_SLOPE 2.92, 9.52, PBLUC_R_SQUARED 0.401, 0.159, read-out: LUCIFERASE INFECTION ASSAY - IC50) is 5.36.

For the origin of these results see ChEMBL document CHEMBL4483862, “Open-source discovery of chemical leads for next-generation chemoprotective antimalarials” (2018).
